Experimental findings from patent US20240140991A1, “ANTIBIOTIC NATURAL PRODUCT ANALOGUES” (THE QUEEN'S UNIVERSITY OF BELFAST, priority 2021, published 2024) are described below.

Each structure is given as a SMILES string. ≈ marks a conversion by molar mass, not a printed value. Positions of bridges follow the written chain, without caps; N, C: chain ends. Non-standard residues stand in square brackets, D forms with d. Residues, ends and D or L forms follow the SMILES beside them. ξ: configuration not given here. *: point of attachment. Palmitoyl = CCCCCCCCCCCCCCCC(=O)*; Hexanoyl(4ξ-Me) = CCC(C)CCC(=O)*; X2 = CC(=O)[C@H](CC(N)=O)C(=O)*; Lauroyl = CCCCCCCCCCCC(=O)*; Decanoyl = CCCCCCCCCC(=O)*; dOrn = NCCC[C@@H](N)C(=O)O; Octanoyl = CCCCCCCC(=O)*; Orn = NCCC[C@H](N)C(=O)O; Hexanoyl = CCCCCC(=O)*; OAll = C=CCO*

In experiment [1] the test system is A. baumannii ATCC 17978. The class given is cell-based, Acinetobacter baumannii. The following applies: ATCC 17978. The method, then:
(§1) Minimum inhibitory concentration (MIC) was determined by broth microdilution according to CLSI guidelines. Blood agar plates were inoculated with glycerol stocks of Escherichia coli ATCC 25922, E. coli ATCC 25922 MCR-1, E. coli MCR-1 (clinical isolate from Utrecht Medical Center, NL), E. coli EQAS MCR-2 (clinical isolate from Wageningen University and Research, NL), Kiebsielia pneumoniae ATCC 11228, K. pneumoniae ATCC 13883, K. pneumonia 2048 (clinical isolate from Vrije Universiteit Amsterdam Medical Center, NL), K. pneumonia JS-123 (clinical isolate from Utrecht Medical Center, NL), Acinetobacter baumannii ATCC 17961, A. baumannil ATCC 17978, A. baumannii 2018-006 (clinical isolate from Rijksinstituut voor Volksgezondheid en Milieu, NL), A. baumannii MDR (clinical isolate from Vrije Universiteit Amsterdam Medical Center, NL), Pseudomonas aeruginosa ATCC 27853, P. aeruginosa PAO1, P. aeruginosa NRZ-03961 (Reference strain from Das Nationale Referenzzentrum für gramnegative Krankenhauserreger, DE), P. aeruginosa M-120 (clinical isolate from Leiden University Medical Center, NL) and Staphylococcus aureus USA300 (clinical isolate from Texas Children's Hospitalm, USA). E. coli 25922 MCR1 was grown on LB agar supplemented with kanamycin. The inoculated agar plates were then incubated for 16 hours at 37° C. Individually grown colonies were subsequently used to inoculate 3 mL aliquots of TSB that were then incubated at 37° C. with shaking at 220 rpm. In parallel, the compounds to be assessed were serially diluted with Mueller-Hinton broth (MHB) in polypropylene 96-well plates (50 μL in each well). Once the OD600 of the bacterial suspensions reached 0.5, the bacteria were diluted with MHB (final concentration 2×10^5 CFU mL^−1) and added to the microplates containing the test compounds (50 μL to each well, final volume: 100 μL). The well-plates were sealed with an adhesive membrane and after 16 hours of incubation at 37° C. with shaking at 220 rpm the wells were visually inspected for bacterial growth. MIC values were defined as the lowest concentration of the compound that prevented visible growth of bacteria.

In experiment [2] the test system is P. aeruginosa PAO1. The class given is cell-based, Pseudomonas aeruginosa. The settings on record: PAO1. The protocol:
as §1

In experiment [3] the test system is K. pneumoniae ATCC 11228. It counts as cell-based, Klebsiella pneumoniae. The following applies: ATCC 11228. The method, then:
as §1

Experiment [4] deals with Escherichia coli ATCC 25922. The class given is cell-based. The settings on record: ATCC 25922. The gist of the method: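 Broth microdilution in MHB per CLSI; inoculum 2×10^5 CFU mL^−1 from log-phase TSB cultures at OD600 0.5. Plates incubated 16 hours at 37° C with shaking at 220 rpm. MIC is the lowest concentration preventing visible growth.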
In experiment [5] the test system is E. coli. The class given is cell-based. The protocol:
as §1
MIC values were determined for the lipid analogues of brevicidine.
MIC values were determined for the position 9 analogues of linear brevicidine.

On to `CCCCCCCCCCCC(=O)N[C@H](CO)C(=O)N[C@H](Cc1ccc(O)cc1)C(=O)N[C@H](Cc1c[nH]c2ccccc12)C(=O)N[C@H](CCCN)C(=O)N[C@@H](CCCN)C(=O)NCC(=O)N[C@H](CCCN)C(=O)N[C@@H](Cc1c[nH]c2ccccc12)C(=O)N[C@@H]1C(=O)N[C@@H]([C@@H](C)CC)C(=O)N[C@@H](CC(N)=O)C(=O)NCC(=O)NCC(=O)O[C@@H]1C` [Compound C12] (Lauroyl-[dS][dY][dW][dOrn][Orn]G[dOrn]WTINGG; ester 9-C), for which the “Minimum inhibitory concentration (MIC)” value is 2 µg/mL (≈ 1.21 µM) in experiment [1], 4 µg/mL (≈ 2.43 µM) in experiment [2], 2 to 4 µg/mL in experiment [3] and 4 µg/mL (≈ 2.43 µM) in experiment [4].

For the molecule `CCCCCC(=O)N[C@H](CO)C(=O)N[C@H](Cc1ccc(O)cc1)C(=O)N[C@H](Cc1c[nH]c2ccccc12)C(=O)N[C@H](CCCN)C(=O)N[C@@H](CCCN)C(=O)NCC(=O)N[C@H](CCCN)C(=O)N[C@@H](Cc1c[nH]c2ccccc12)C(=O)N[C@@H]1C(=O)N[C@@H]([C@@H](C)CC)C(=O)N[C@@H](CC(N)=O)C(=O)NCC(=O)NCC(=O)O[C@@H]1C` [Compound C6] (Hexanoyl-[dS][dY][dW][dOrn][Orn]G[dOrn]WTINGG; ester 9-C), the “Minimum inhibitory concentration (MIC)” value in experiment [1] is 1 µg/mL (≈ 0.64 µM); in experiment [2], 1 to 2 µg/mL; in experiment [3], 2 µg/mL (≈ 1.28 µM); in experiment [4], 1 to 2 µg/mL.

In the case of `CCC(C)CCC(=O)N[C@H](CC(N)=O)C(=O)N[C@H](Cc1ccc(O)cc1)C(=O)N[C@H](Cc1c[nH]c2ccccc12)C(=O)N[C@H](CCCN)C(=O)N[C@@H](CCCN)C(=O)NCC(=O)N[C@H](CCCN)C(=O)N[C@@H](Cc1c[nH]c2ccccc12)C(=O)N[C@@H](Cc1c[nH]c2ccccc12)C(=O)N[C@H](C(=O)NCC(N)=O)[C@@H](C)CC` (some centres unmarked) [Und(9-Trp)-NH2] ({Hexanoyl(4ξ-Me)}-[dN][dY][dW][dOrn][Orn]G[dOrn]WWIG-NH2), the “E. coli MIC” value in experiment [5] came to 0.78 µg/mL.

On to `CCCCCCCC(=O)N[C@H](CO)C(=O)N[C@H](Cc1ccc(O)cc1)C(=O)N[C@H](Cc1c[nH]c2ccccc12)C(=O)N[C@H](CCCN)C(=O)N[C@@H](CCCN)C(=O)NCC(=O)N[C@H](CCCN)C(=O)N[C@@H](Cc1c[nH]c2ccccc12)C(=O)N[C@@H]1C(=O)N[C@@H]([C@@H](C)CC)C(=O)N[C@@H](CC(N)=O)C(=O)NCC(=O)NCC(=O)O[C@@H]1C` [Compound C8] (Octanoyl-[dS][dY][dW][dOrn][Orn]G[dOrn]WTINGG; ester 9-C), for which the “Minimum inhibitory concentration (MIC)” value in experiment [1] was 0.5 to 1 µg/mL; in experiment [2], 1 µg/mL (≈ 0.629 µM); in experiment [3], 0.5 to 1 µg/mL; in experiment [4] it was 0.5 to 1 µg/mL.

Regarding `CC[C@H](C)[C@@H]1NC(=O)[C@@H](NC(=O)[C@H](Cc2c[nH]c3ccccc23)NC(=O)[C@@H](CCCN)NC(=O)CNC(=O)[C@H](CCCN)NC(=O)[C@@H](CCCN)NC(=O)[C@@H](Cc2c[nH]c3ccccc23)NC(=O)[C@@H](Cc2ccc(O)cc2)NC(=O)[C@@H](CO)NC(C)=O)[C@@H](C)OC(=O)CNC(=O)CNC(=O)[C@H](CC(N)=O)NC1=O` [Compound C2] (Ac-[dS][dY][dW][dOrn][Orn]G[dOrn]WTINGG; ester 9-C), the “Minimum inhibitory concentration (MIC)” value is 64 µg/mL (≈ 42.5 µM) in experiment [1], 16 µg/mL (≈ 10.6 µM) in experiment [2], 16 µg/mL (≈ 10.6 µM) in experiment [3] and 16 µg/mL (≈ 10.6 µM) in experiment [4].

Turning to `CCCCCCCCCCCC(=O)N[C@H](CC(N)=O)C(=O)N[C@H](Cc1ccc(O)cc1)C(=O)N[C@H](Cc1c[nH]c2ccccc12)C(=O)N[C@H](CCCN)C(=O)N[C@@H](CCCN)C(=O)NCC(=O)N[C@H](CCCN)C(=O)N[C@@H](Cc1c[nH]c2ccccc12)C(=O)N[C@@H]1C(=O)N[C@@H]([C@@H](C)CC)C(=O)NCC(=O)N[C@@H](CO)C(=O)O[C@@H]1C` [Brev-C12] (Lauroyl-[dN][dY][dW][dOrn][Orn]G[dOrn]WTIGS; ester 9-C), in experiment [5], the “E. coli MIC” value stood at 3.12 µg/mL.

As for `CCCCCCCCCC(=O)N[C@H](CC(N)=O)C(=O)N[C@H](Cc1ccc(O)cc1)C(=O)N[C@H](Cc1c[nH]c2ccccc12)C(=O)N[C@H](CCCN)C(=O)N[C@@H](CCCN)C(=O)NCC(=O)N[C@H](CCCN)C(=O)N[C@@H](Cc1c[nH]c2ccccc12)C(=O)N[C@@H]1C(=O)N[C@@H]([C@@H](C)CC)C(=O)NCC(=O)N[C@@H](CO)C(=O)O[C@@H]1C` [Brev-C10] (Decanoyl-[dN][dY][dW][dOrn][Orn]G[dOrn]WTIGS; ester 9-C), the “E. coli MIC” value in experiment [5] was determined as 1.56 µg/mL.

In the case of `CCC(C)CCC(=O)N[C@H](CC(N)=O)C(=O)N[C@H](Cc1ccc(O)cc1)C(=O)N[C@H](Cc1c[nH]c2ccccc12)C(=O)N[C@H](CCCN)C(=O)N[C@@H](CCCN)C(=O)NCC(=O)N[C@H](CCCN)C(=O)N[C@@H](Cc1c[nH]c2ccccc12)C(=O)N[C@@H](Cc1ccccc1)C(=O)N[C@H](C(=O)NCC(N)=O)[C@@H](C)CC` (some centres unmarked) [Und(9-Phe)-NH2] ({Hexanoyl(4ξ-Me)}-[dN][dY][dW][dOrn][Orn]G[dOrn]WFIG-NH2), the “E. coli MIC” value in experiment [5] is below 0.20 µg/mL.

For the molecule `CC[C@H](C)[C@@H]1NC(=O)[C@@H](NC(=O)[C@H](Cc2c[nH]c3ccccc23)NC(=O)[C@@H](CCCN)NC(=O)CNC(=O)[C@H](CCCN)NC(=O)[C@@H](CCCN)NC(=O)[C@@H](Cc2c[nH]c3ccccc23)NC(=O)[C@@H](Cc2ccc(O)cc2)NC(=O)[C@@H](CC(N)=O)C(C)=O)[C@@H](C)OC(=O)[C@H](CO)NC(=O)CNC1=O` [Brev-C2] (X2-[dY][dW][dOrn][Orn]G[dOrn]WTIGS; ester 8-C), the “E. coli MIC” value in experiment [5] amounted to 50 µg/mL.

Consider `CCC(C)CCC(=O)N[C@H](CC(N)=O)C(=O)N[C@H](Cc1ccc(O)cc1)C(=O)N[C@H](Cc1c[nH]c2ccccc12)C(=O)N[C@H](CCCN)C(=O)N[C@@H](CCCN)C(=O)NCC(=O)N[C@H](CCCN)C(=O)N[C@@H](Cc1c[nH]c2ccccc12)C(=O)N[C@@H](CC(=O)O)C(=O)N[C@H](C(=O)NCC(N)=O)[C@@H](C)CC` (some centres unmarked) [Und(9-Asp)-NH2] ({Hexanoyl(4ξ-Me)}-[dN][dY][dW][dOrn][Orn]G[dOrn]WDIG-NH2), for which the “E. coli MIC” value in experiment [5] worked out at 12.5 µg/mL.

For `CCC(C)CCC(=O)N[C@H](CC(N)=O)C(=O)N[C@H](Cc1ccc(O)cc1)C(=O)N[C@H](Cc1c[nH]c2ccccc12)C(=O)N[C@H](CCCN)C(=O)N[C@@H](CCCN)C(=O)NCC(=O)N[C@H](CCCN)C(=O)N[C@@H](Cc1c[nH]c2ccccc12)C(=O)N[C@@H](CC(C)C)C(=O)N[C@H](C(=O)NCC(N)=O)[C@@H](C)CC` (some centres unmarked) [Und(9-Leu)-NH2] ({Hexanoyl(4ξ-Me)}-[dN][dY][dW][dOrn][Orn]G[dOrn]WLIG-NH2), in experiment [5], the “E. coli MIC” value turned out to be 0.78 µg/mL.

For the molecule `CCCCCCCCCCCCCCCC(=O)N[C@H](CC(N)=O)C(=O)N[C@H](Cc1ccc(O)cc1)C(=O)N[C@H](Cc1c[nH]c2ccccc12)C(=O)N[C@H](CCCN)C(=O)N[C@@H](CCCN)C(=O)NCC(=O)N[C@H](CCCN)C(=O)N[C@@H](Cc1c[nH]c2ccccc12)C(=O)N[C@@H]1C(=O)N[C@@H]([C@@H](C)CC)C(=O)NCC(=O)N[C@@H](CO)C(=O)O[C@@H]1C` [Brev-C16] (Palmitoyl-[dN][dY][dW][dOrn][Orn]G[dOrn]WTIGS; ester 9-C), the “E. coli MIC” value in experiment [5] was above 100 µg/mL.

Turning to `CCCCCC(=O)N[C@H](CC(N)=O)C(=O)N[C@H](Cc1ccc(O)cc1)C(=O)N[C@H](Cc1c[nH]c2ccccc12)C(=O)N[C@H](CCCN)C(=O)N[C@@H](CCCN)C(=O)NCC(=O)N[C@H](CCCN)C(=O)N[C@@H](Cc1c[nH]c2ccccc12)C(=O)N[C@@H]1C(=O)N[C@@H]([C@@H](C)CC)C(=O)NCC(=O)N[C@@H](CO)C(=O)O[C@@H]1C` [Brev-C6] (Hexanoyl-[dN][dY][dW][dOrn][Orn]G[dOrn]WTIGS; ester 9-C), the “E. coli MIC” value in experiment [5] amounted to 25 µg/mL.

Turning to `C=CCOC(=O)CC[C@H](NC(=O)[C@H](Cc1c[nH]c2ccccc12)NC(=O)[C@@H](CCCN)NC(=O)CNC(=O)[C@H](CCCN)NC(=O)[C@@H](CCCN)NC(=O)[C@@H](Cc1c[nH]c2ccccc12)NC(=O)[C@@H](Cc1ccc(O)cc1)NC(=O)[C@@H](CC(N)=O)NC(=O)CCC(C)CC)C(=O)N[C@H](C(=O)NCC(N)=O)[C@@H](C)CC` (some centres unmarked) [Und(9-AllGlu)-NH2] ({Hexanoyl(4ξ-Me)}-[dN][dY][dW][dOrn][Orn]G[dOrn]WE(OAll)IG-NH2), in experiment [5], the “E. coli MIC” value stood at 0.4 µg/mL.
